Test results as given in patent EP0726261A1, “Herbidical 1,2,4 thiadiazoles” (American Cyanamid Company, priority 1995, dated 1996).

Columns and labels:
Type in all cases: in vivo
Avena fatua [1] = assay: Herbicidal activity, preemergence test (Example 66); set-up: key: A rating of 0 indicates growth as untreated control; a rating of 9 indicates death; settings: pre; 1000 g/ha; assessed visually twenty days after spraying
Method: (§1) To evaluate their herbicidal activity, compounds according to the invention are tested using a representative range of plants: ZEAMX Zea mays ORYSA Oryza sativa GLXMA Glycine max BEAVA Beta vulgaris LIUUT Linum usitatissimum AVEFA Avena fatua ECHCG Echinochloa crus-galli SINAL Sinapsis alba
(§2) The tests fall into two categories, preemergence and postemergence. The preemergence tests involve spraying a liquid formulation of the compound onto the soil in which the seeds of the plant species mentioned above have recently been sown. The postemergence tests involve spraying a liquid formulation of the compound onto seedling plants of the above species.
(§3) The soil used in the tests is a prepared horticultural loam.
(§4) The formulations used in the tests are prepared from solutions of the test compounds in acetone containing 0.4% by weight of an alkylphenol/ethylene oxide condensate available under the trademark TRITON X-155. These acetone solutions are diluted with water and the resulting formulations applied at dosage levels corresponding to 1000 g of active material per hectare in a volume equivalent to 900 litres per hectare.
(§5) In the preemergence tests, untreated sown soil, and in the postemergence tests, untreated soil bearing seedling plants, are used as controls.
(§6) The herbicidal effects of the test compounds are assessed visually twenty days after spraying the foliage and the soil and are recorded on a 0-9 scale. A rating of 0 indicates growth as untreated control, a rating of 9 indicates death. An increase of 1 unit on the linear scale approximates to an 11% increase in the level of effect.

Echinochloa crus-galli [2] = assay: as above; set-up: key: A rating of 0 indicates growth as untreated control; a rating of 9 indicates death; settings: pre; 1000 g/ha; assessed visually twenty days after spraying
Method: as §1, §2, §3, §4, §5, §6

Sinapsis alba [3] = assay: as above; set-up: key: A rating of 0 indicates growth as untreated control; a rating of 9 indicates death; settings: pre; 1000 g/ha; assessed visually twenty days after spraying
Method: as §1, §2, §3, §4, §5, §6

Beta vulgaris [4] = assay: as above; set-up: key: A rating of 0 indicates growth as untreated control; a rating of 9 indicates death; settings: pre; 1000 g/ha; assessed visually twenty days after spraying
Method: as §1, §2, §3, §4, §5, §6

Zea mays [5] = assay: as above; set-up: key: A rating of 0 indicates growth as untreated control; a rating of 9 indicates death; settings: pre; 1000 g/ha; assessed visually twenty days after spraying
Method: as §1, §2, §3, §4, §5, §6

Oryza sativa [6] = assay: as above; set-up: key: A rating of 0 indicates growth as untreated control; a rating of 9 indicates death; settings: pre; 1000 g/ha; assessed visually twenty days after spraying
Method: as §1, §2, §3, §4, §5, §6

Linum usitatissimum [7] = assay: as above; set-up: key: A rating of 0 indicates growth as untreated control; a rating of 9 indicates death; settings: pre; 1000 g/ha; assessed visually twenty days after spraying
Method: as §1, §2, §3, §4, §5, §6

Glycine max [8] = assay: as above; set-up: key: A rating of 0 indicates growth as untreated control; a rating of 9 indicates death; settings: pre; 1000 g/ha; assessed visually twenty days after spraying
Method: as §1, §2, §3, §4, §5, §6

Glycine max [9] = assay: Herbicidal activity, postemergence test (Example 66); settings: post; 1000 g/ha; assessed visually twenty days after spraying
Method: as §1, §2, §3, §4, §5, §6

Avena fatua [10] = assay: as above; set-up: key: A rating of 0 indicates growth as untreated control; a rating of 9 indicates death; settings: post; 1000 g/ha; assessed visually twenty days after spraying
Method: as §1, §2, §3, §4, §5, §6

Echinochloa crus-galli [11] = assay: as above; set-up: key: A rating of 0 indicates growth as untreated control; a rating of 9 indicates death; settings: post; 1000 g/ha; assessed visually twenty days after spraying
Method: as §1, §2, §3, §4, §5, §6

Sinapsis alba [12] = assay: as above; set-up: key: A rating of 0 indicates growth as untreated control; a rating of 9 indicates death; settings: post; 1000 g/ha; assessed visually twenty days after spraying
Method: as §1, §2, §3, §4, §5, §6

Beta vulgaris [13] = assay: as above; set-up: key: A rating of 0 indicates growth as untreated control; a rating of 9 indicates death; settings: post; 1000 g/ha; assessed visually twenty days after spraying
Method: as §1, §2, §3, §4, §5, §6

Zea mays [14] = assay: as above; set-up: key: A rating of 0 indicates growth as untreated control; a rating of 9 indicates death; settings: post; 1000 g/ha; assessed visually twenty days after spraying
Method: as §1, §2, §3, §4, §5, §6

Oryza sativa [15] = assay: as above; set-up: key: A rating of 0 indicates growth as untreated control; a rating of 9 indicates death; settings: post; 1000 g/ha; assessed visually twenty days after spraying
Method: as §1, §2, §3, §4, §5, §6

Linum usitatissimum [16] = assay: as above; set-up: key: A rating of 0 indicates growth as untreated control; a rating of 9 indicates death; settings: post; 1000 g/ha; assessed visually twenty days after spraying
Method: as §1, §2, §3, §4, §5, §6

Structure (SMILES) | herbicidal effects on a 0-9 scale, AVEFA (Avena fatua [1]) | herbicidal effects on a 0-9 scale, ECHCG (Echinochloa crus-galli [2]) | herbicidal effects on a 0-9 scale, SINAL (Sinapsis alba [3]) | herbicidal effects on a 0-9 scale, BEAVA (Beta vulgaris [4]) | herbicidal effects on a 0-9 scale, ZEAMX (Zea mays [5]) | herbicidal effects on a 0-9 scale, ORYSA (Oryza sativa [6]) | herbicidal effects on a 0-9 scale, LIUUT (Linum usitatissimum [7]) | herbicidal effects on a 0-9 scale, GLXMA (Glycine max [8]) | herbicidal effects on a 0-9 scale, GLXMA (Glycine max [9]) | herbicidal effects on a 0-9 scale, AVEFA (Avena fatua [10]) | herbicidal effects on a 0-9 scale, ECHCG (Echinochloa crus-galli [11]) | herbicidal effects on a 0-9 scale, SINAL (Sinapsis alba [12]) | herbicidal effects on a 0-9 scale, BEAVA (Beta vulgaris [13]) | herbicidal effects on a 0-9 scale, ZEAMX (Zea mays [14]) | herbicidal effects on a 0-9 scale, ORYSA (Oryza sativa [15]) | herbicidal effects on a 0-9 scale, LIUUT (Linum usitatissimum [16])
CC(NC(=O)c1nsc(-c2ccccc2)n1)c1cccs1 (racemic) [Example 22] | 0 | 2 | 3 | 2 | 1 | 0 | 0 | 0 | 6 | 4 | 5 | 7 | 9 | 2 | 2 | 6
CC(C)Cc1nsc(C(=O)NC(C)c2cccs2)n1 (racemic) [Example 12, (R/S)-3-Isobutyl-[1,2,4]thiadiazole-5-carboxylic acid, [1-(2-thienyl)ethyl]amide] | 0 | 5 | 5 | 5 | 0 | 0 | 2 | 0 | 5 | 2 | 9 | 9 | 8 | 0 | 0 | 8
CC(NC(=O)c1nc(-c2ccccc2)ns1)c1cccs1 (racemic) [Example 4, (R/S)-3-Phenyl-[1,2,4]thiadiazole-5-carboxylic acid, [1-(2-thienyl)ethyl]amide] | 0 | 0 | 0 | 0 | 0 | 0 | 0 | 0 | 5 | 5 | 8 | 8 | 8 | 0 | 0 | 7
CC(C)c1nsc(C(=O)N[C@@H](C)c2ccccc2)n1 [Example 10, (S)-3-Isopropyl-[1,2,4]thiadiazole-5-carboxylic acid, 1-(phenylethyl)amide] | 0 | 5 | 7 | 7 | 0 | 0 | 4 | 0 | 5 | 5 | 8 | 8 | 8 | 2 | 0 | 8
C[C@H](NC(=O)c1nsc(-c2ccc(Cl)cc2)n1)c1ccccc1 [Example 24] | 0 | 0 | 0 | 0 | 0 | 0 | 0 | 0 | 5 | 0 | 2 | 8 | 8 | 0 | 0 | 5
O=C(NCc1ccccc1)c1nc(-c2ccc(F)cc2)ns1 [Example 20] | 0 | 0 | 0 | 0 | 0 | 0 | 0 | 0 | 6 | 0 | 2 | 9 | 9 | 0 | 0 | 6
CC(NC(=O)c1nc(C(C)(C)C)ns1)c1cccs1 (racemic) [Example 6, (R/S)-3-tert-Butyl-[1,2,4]thiadiazole-5-carboxylic acid, [1-(2-thienyl)ethyl]amide] | 0 | 0 | 7 | 9 | 0 | 0 | 3 | 0 | 7 | 7 | 9 | 9 | 9 | 0 | 2 | 9
CC(C)Cc1nsc(C(=O)N[C@@H](C)c2ccccc2)n1 [Example 13, (S)-3-Isobutyl-[1,2,4]thiadiazole-5-carboxylic acid, 1-(phenylethyl)amide] | 0 | 2 | 4 | 5 | 0 | 0 | 0 | 0 | 5 | 5 | 8 | 8 | 9 | 2 | 0 | 7
CC(NC(=O)c1nc(-c2ccc(F)cc2)ns1)c1cccs1 (racemic) [Example 15, (R/S)-3-(4-Fluorophenyl)-[1,2,4]thiadiazole-5-carboxylic acid, [1-(2-thienyl)ethyl]amide] | 0 | 0 | 0 | 0 | 0 | 0 | 0 | 0 | 7 | 4 | 7 | 9 | 9 | 3 | 0 | 7
